What was measured:
c-Cbl = c-Cbl (Homo sapiens (Human), UniProt P22681); experiment: C-Cbl LCK Ub TR-FRET assay (c-cbl Lck HTRF); type: biochemical; conditions: for (fold-selectivity): C-cbl Lck HTRF IC50 relative to Cbl-b Lck HTRF IC50
Summary of the method: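 Signal is read once the detection mix has stood 20 min at ambient temperature. Curves are anchored by DMSO as maximum and by omission of LCK as minimum.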

Cbl-b = Cbl-b (Homo sapiens (Human), UniProt Q13191); experiment: Cbl-b LCK Ub TR-FRET assay (Cbl-b Lck HTRF); type: biochemical
Summary of the method: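 Biotin-Cbl-b preincubated with compound (10-point 3-fold series) 60 min, then His-LCK with 1 mM ATP (2× mixture) added for 90 min at room temperature. Ubiquitination detected by TR-FRET using HA-ubiquitin/UBE2D2 adduct, anti-HA-D2 and streptavidin-Eu; IC50 normalised to no-LCK and DMSO controls.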

c-Cbl, sequence (P22681 47-435): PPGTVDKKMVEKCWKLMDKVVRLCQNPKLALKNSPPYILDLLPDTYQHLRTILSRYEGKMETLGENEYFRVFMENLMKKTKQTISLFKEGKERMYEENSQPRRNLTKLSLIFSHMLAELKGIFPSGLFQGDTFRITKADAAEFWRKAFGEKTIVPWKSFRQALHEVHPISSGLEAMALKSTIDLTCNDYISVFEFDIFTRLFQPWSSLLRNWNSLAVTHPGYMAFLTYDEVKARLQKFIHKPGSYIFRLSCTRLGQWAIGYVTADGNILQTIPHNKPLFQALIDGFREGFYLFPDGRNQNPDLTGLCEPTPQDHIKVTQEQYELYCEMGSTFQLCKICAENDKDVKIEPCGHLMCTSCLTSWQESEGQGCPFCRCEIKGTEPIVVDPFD
Cbl-b, sequence (Q13191 40-426): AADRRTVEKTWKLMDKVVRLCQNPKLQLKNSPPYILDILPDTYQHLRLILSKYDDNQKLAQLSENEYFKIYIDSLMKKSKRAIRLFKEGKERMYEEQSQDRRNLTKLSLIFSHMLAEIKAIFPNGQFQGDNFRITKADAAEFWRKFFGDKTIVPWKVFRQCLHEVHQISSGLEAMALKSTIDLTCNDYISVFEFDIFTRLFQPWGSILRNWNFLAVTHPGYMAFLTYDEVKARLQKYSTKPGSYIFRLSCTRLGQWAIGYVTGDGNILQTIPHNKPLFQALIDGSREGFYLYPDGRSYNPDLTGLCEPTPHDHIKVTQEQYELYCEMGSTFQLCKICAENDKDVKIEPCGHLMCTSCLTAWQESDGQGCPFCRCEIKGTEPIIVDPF

IC50 (c-Cbl) [nM] | (fold-selectivity) (c-Cbl) | IC50 (Cbl-b) [nM] | Structure (SMILES)
33 | (0.75x) | 44 | Cn1cnnc1CC1(c2cc(NC3CCCC3)nc(N3Cc4c(cc(CNC5(C)CCC5)cc4C(F)(F)F)C3=O)c2)CCC1 [Compound 295, 2-(6-(cyclopentylamino)-4-(1-((4-methyl-4H-1,2,4-triazol-3-yl)methyl)cyclobutyl)pyridin-2-yl)-6-(((1-methylcyclobutyl)amino)methyl)-4-(trifluoromethyl)isoindolin-1-one]
110 | (1.2x) | 92 | CC(C)N(C)Cc1cc2c(c(C(F)(F)F)c1)CN(c1cccc(C3(Cc4nncn4C)CC(F)(F)C3)c1)C2=O [Compound 416, 2-(3-(3,3-difluoro-1-((4-methyl-4H-1,2,4-triazol-3-yl)methyl)cyclobutyl)phenyl)-6-((isopropyl(methyl)amino)methyl)-4-(trifluoromethyl)isoindolin-1-one]
7.4 | (0.59x) | 12 | Cn1cnnc1CC1(c2cc(C3CC3)nc(N3Cc4c(cc(CNC5(C)CCC5)cc4C(F)(F)F)C3=O)c2)CCC1 [Compound 284, 2-(6-cyclopropyl-4-(1-((4-methyl-4H-1,2,4-triazol-3-yl)methyl)cyclobutyl)pyridin-2-yl)-6-(((1-methylcyclobutyl)amino)methyl)-4-(trifluoromethyl)isoindolin-1-one]
8.7 | (0.70x) | 13 | CC(C)Nc1cc(N2Cc3c(cc(CNCC4CC4)cc3C(F)(F)F)C2=O)cc(C2(Cc3nncn3C)CCC2)c1 [Compound 459, 6-(((cyclopropylmethyl)amino)methyl)-2-(3-(isopropylamino)-5-(1-((4-methyl-4H-1,2,4-triazol-3-yl)methyl)cyclobutyl)phenyl)-4-(trifluoromethyl)isoindolin-1-one]
79 | 1.5x | 53 | Cn1cnnc1[C@H](F)C1(c2cccc(N3Cc4c(cc(CN5CC6(CC6)C5)cc4C(F)(F)F)C3=O)c2)COC1 [Compound 78, (R)-6-((5-azaspiro[2.3]hexan-5-yl)methyl)-2-(3-(3-(fluoro(4-methyl-4H-1,2,4-triazol-3-yl)methyl)oxetan-3-yl)phenyl)-4-(trifluoromethyl)isoindolin-1-one]
190 | 2.6x | 72 | CC(=O)N1CCN(Cc2cc3c(c(C(F)(F)F)c2)CN(c2cccc(C4([C@@H](F)c5nncn5C)COC4)c2)C3=O)[C@@H](C(C)C)C1 [Compound 193, 6-(((S)-4-acetyl-2-isopropylpiperazin-1-yl)methyl)-2-(3-(3-((R)-fluoro(4-methyl-4H-1,2,4-triazol-3-yl)methyl)oxetan-3-yl)phenyl)-4-(trifluoromethyl)isoindolin-1-one]
51 | (2.4x) | 21 | Cn1cnc(CNc2cc(C3(Cc4nncn4C)CCC3)cc(N3Cc4c(cc(CNC5(C)CCC5)cc4C(F)(F)F)C3=O)n2)c1 [Compound 320, 2-(6-(((1-methyl-1H-imidazol-4-yl)methyl)amino)-4-(1-((4-methyl-4H-1,2,4-triazol-3-yl)methyl)cyclobutyl)pyridin-2-yl)-6-(((1-methylcyclobutyl)amino)methyl)-4-(trifluoromethyl)isoindolin-1-one]
9.5 | (0.74x) | 13 | CCCc1cc(C2(Cc3nncn3C)CCC2)cc(N2Cc3c(cc(CNC4(C)CCC4)cc3C(F)(F)F)C2=O)n1 [Compound 343, 2-(4-(1-((4-methyl-4H-1,2,4-triazol-3-yl)methyl)cyclobutyl)-6-propylpyridin-2-yl)-6-(((1-methylcyclobutyl)amino)methyl)-4-(trifluoromethyl)isoindolin-1-one]
370 | 1.8x | 210 | Cn1cnnc1[C@@H](F)C1(c2cccc(N3Cc4c(cc(CN5CC(C)(CF)C5)cc4C(F)(F)F)C3=O)c2)COC1 [Compound 77, (S)-2-(3-(3-(fluoro(4-methyl-4H-1,2,4-triazol-3-yl)methyl)oxetan-3-yl)phenyl)-6-((3-(fluoromethyl)-3-methylazetidin-1-yl)methyl)-4-(trifluoromethyl)isoindolin-1-one]
7300 | (5.9x) | 1100 | Cn1cnnc1CC1(c2cc(OC3CCCC3)nc(N3Cc4c(cccc4C(F)(F)F)C3=O)c2)COC1 [Compound 381, 2-(6-(cyclopentyloxy)-4-(3-((4-methyl-4H-1,2,4-triazol-3-yl)methyl)oxetan-3-yl)pyridin-2-yl)-4-(trifluoromethyl)isoindolin-1-one]
9.7 | (0.63x) | 15 | Cn1cnnc1CC1(c2cccc(N3Cc4c(cc(CNC5CCCC5)cc4C(F)(F)F)C3=O)c2)CC(F)(F)C1 [Compound 364, 6-((cyclopentylamino)methyl)-2-(3-(3,3-difluoro-1-((4-methyl-4H-1,2,4-triazol-3-yl)methyl)cyclobutyl)phenyl)-4-(trifluoromethyl)isoindolin-1-one]
220 | (0.91x) | 240 | CC(C)N(C)Cc1cc2c(c(C(F)(F)F)c1)CN(c1cccc(C3([C@H](F)c4nncn4C)CC(F)(F)C3)c1)C2=O [Compound 420, (S)-2-(3-(3,3-difluoro-1-(fluoro(4-methyl-4H-1,2,4-triazol-3-yl)methyl)cyclobutyl)phenyl)-6-((isopropyl(methyl)amino)methyl)-4-(trifluoromethyl)isoindolin-1-one]
99 | 2.2x | 44 | C=CC1(O)CN(Cc2cc3c(c(C(F)(F)F)c2)CN(c2cccc(C4([C@@H](F)c5nncn5C)COC4)c2)C3=O)C1 [Compound 169, (R)-2-(3-(3-(fluoro(4-methyl-4H-1,2,4-triazol-3-yl)methyl)oxetan-3-yl)phenyl)-6-((3-hydroxy-3-vinylazetidin-1-yl)methyl)-4-(trifluoromethyl)isoindolin-1-one]
31 | (0.73x) | 42 | C[C@@H]1CN(Cc2cc3c(c(C(F)(F)F)c2)CN(c2cccc(C4(Cc5nncn5C)CC(F)(F)C4)c2)C3=O)CCN1 [Compound 424, (R)-2-(3-(3,3-difluoro-1-((4-methyl-4H-1,2,4-triazol-3-yl)methyl)cyclobutyl)phenyl)-6-((3-methylpiperazin-1-yl)methyl)-4-(trifluoromethyl)isoindolin-1-one]
29 | (0.96x) | 30 | COCC1(NCc2cc3c(c(C(F)(F)F)c2)CN(c2cccc(C4(Cc5nncn5C)CC(F)(F)C4)c2)C3=O)CC1 [Compound 367, 2-(3-(3,3-difluoro-1-((4-methyl-4H-1,2,4-triazol-3-yl)methyl)cyclobutyl)phenyl)-6-(((1-(methoxymethyl)cyclopropyl)amino)methyl)-4-(trifluoromethyl)isoindolin-1-one]
60 | 2.2x | 27 | Cn1cnnc1[C@H](F)C1(c2cccc(N3Cc4c(cc(CN5CC6(C5)CC6(F)F)cc4C(F)(F)F)C3=O)c2)COC1 [Compound 153, (R)-6-((1,1-difluoro-5-azaspiro[2.3]hexan-5-yl)methyl)-2-(3-(3-(fluoro(4-methyl-4H-1,2,4-triazol-3-yl)methyl)oxetan-3-yl)phenyl)-4-(trifluoromethyl)isoindolin-1-one]
3100 | (1.0x) | 3100 | CC(C)[C@H]1CN(C)CCN1Cc1cc2c(c(C(F)(F)F)c1)CN(c1cccc(C3([C@@H](F)c4nncn4-c4ccccc4)COC3)c1)C2=O [Compound 259, 2-(3-(3-((R)-fluoro(4-phenyl-4H-1,2,4-triazol-3-yl)methyl)oxetan-3-yl)phenyl)-6-(((S)-2-isopropyl-4-methylpiperazin-1-yl)methyl)-4-(trifluoromethyl)isoindolin-1-one]
39 | 1.5x | 27 | CC(C)[C@H]1CN(C2COC2)CCN1Cc1cc2c(c(C(F)(F)F)c1)CN(c1cccc(C3([C@@H](F)c4nncn4C)COC3)c1)C2=O [Compound 200, 2-(3-(3-((R)-fluoro(4-methyl-4H-1,2,4-triazol-3-yl)methyl)oxetan-3-yl)phenyl)-6-(((S)-2-isopropyl-4-(oxetan-3-yl)piperazin-1-yl)methyl)-4-(trifluoromethyl)isoindolin-1-one]
660 | 2.8x | 240 | CC(C)[C@H]1CN(S(C)(=O)=O)CCN1Cc1cc2c(c(C(F)(F)F)c1)CN(c1cccc(C3([C@H](F)c4nncn4C)COC3)c1)C2=O [Compound 196, 2-(3-(3-((S)-fluoro(4-methyl-4H-1,2,4-triazol-3-yl)methyl)oxetan-3-yl)phenyl)-6-(((S)-2-isopropyl-4-(methylsulfonyl)piperazin-1-yl)methyl)-4-(trifluoromethyl)isoindolin-1-one]
5100 | (1.5x) | 3400 | Cn1cnnc1CC1(c2cc(CC3CCCC3)nc(N3Cc4c(cccc4C(F)(F)F)C3=O)c2)COC1 [Compound 292, 2-(6-(cyclopentylmethyl)-4-(3-((4-methyl-4H-1,2,4-triazol-3-yl)methyl)oxetan-3-yl)pyridin-2-yl)-4-(trifluoromethyl)isoindolin-1-one]
340 | 1.8x | 190 | C[C@H](c1cc2c(c(C(F)(F)F)c1)CN(c1cccc(C3([C@H](F)c4nncn4C)COC3)c1)C2=O)N1CC(C)(F)C1 [Compound 111, 2-(3-(3-((S)-fluoro(4-methyl-4H-1,2,4-triazol-3-yl)methyl)oxetan-3-yl)phenyl)-6-((R)-1-(3-fluoro-3-methylazetidin-1-yl)ethyl)-4-(trifluoromethyl)isoindolin-1-one]

Reference: patent publication US20250230147A1, “LACTAMS AS CBL-B INHIBITORS” (Genentech, Inc., priority 2021, published 2025)
